≈ marks a conversion by molar mass, not a printed value. Like-named read-outs stand apart in the source and are kept apart here.
Tests used:
[1] = test system: thymidine kinase-deficient (TK−) varicella-zoster virus (YS/R); experiment: microbe, parasite or virus in culture; type: cell-based; details: for IC50: Human alphaherpesvirus 3, Vero, read-out: IC50 TK−VZV (YS/R)
[2] = target: T1, calf mucosal adenosine deaminase (ADA, EC 3.5.4.4) (Bos taurus, UniProt P56658); experiment: Substrate activity and competitive inhibition of adenosine deaminase; type: biochemical; details: for rel. Vmax: compound as ADA substrate, relative to ara A 3 = 1.0
T1 sequence (P56658 1-363): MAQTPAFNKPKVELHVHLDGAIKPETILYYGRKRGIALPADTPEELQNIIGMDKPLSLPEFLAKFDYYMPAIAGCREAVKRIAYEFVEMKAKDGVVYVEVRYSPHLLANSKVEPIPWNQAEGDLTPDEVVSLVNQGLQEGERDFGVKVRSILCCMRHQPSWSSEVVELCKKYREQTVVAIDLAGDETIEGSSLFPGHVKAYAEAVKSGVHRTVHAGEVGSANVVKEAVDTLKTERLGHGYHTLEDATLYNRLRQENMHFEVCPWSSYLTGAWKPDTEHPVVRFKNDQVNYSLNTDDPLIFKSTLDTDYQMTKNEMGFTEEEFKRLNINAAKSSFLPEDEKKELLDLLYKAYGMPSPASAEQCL

[3] = test system: human cytomegalovirus (AD-169); experiment: Inhibition of HCMV cytopathogenicity in Vero cell culture; type: cell-based; details: for IC50: read-out: IC50 HCMV (AD-169)
HSV-1 (KOS) = experiment: Anti-HSV-1 activity in vivo, HSV-1-induced mortality in NMRI mice; details: 6 days; for mean day of animal death / mean day of symptom initiation: terminated day 21; for responders at 100 mg/kg / responders at 150 mg/kg / responders at 250 mg/kg: Human alphaherpesvirus 1, ip, 504 h
HIV-1 (IIIB) = experiment: microbe, parasite or virus in culture; type: cell-based; details: Human immunodeficiency virus 1, IIIB
[4] = test system: Snake venom phosphodiesterase; experiment: Activity of snake venom phosphodiesterase against nucleotide analogs; details: pH 9.2, 37° C., 8 h
[5] = Solubility in water (phosphate buffer, UV absorbance); details: for solubility at 20 h: pH 6.8, aqueous buffer, thermodynamic from solid
[6] = test system: moloney murine sarcoma virus (MSV); experiment: Inhibition of MSV cytopathogenicity in CEM cells (cell-protection assay); type: cell-based; details: Moloney murine sarcoma virus, CCRF-CEM, read-out: IC50 MSV
[7] = Lipophilicity, 1-octanol/water partition coefficient
HIV-2 (LAV-2) = experiment: Inhibition of HIV-2 cytopathogenicity in MT4 cells; type: cell-based, human immunodeficiency virus
[8] = test system: herpes simplex type 1 virus (HSV-1) (KOS); experiment: Inhibition of HSV-1 cytopathogenicity in Vero cell culture; type: cell-based; details: for IC50: Human alphaherpesvirus 1, Vero, read-out: IC50 HSV-1 (KOS)
MT4 cells = experiment: Toxicity toward MT4 cells
CEM cells = experiment: Toxicity toward CEM cells
MSV = details: for mean day of animal death / percentage of MSV-infected mice alive at day 21 postinfection / percentage of MSV-infected mice without tumors at day 21 postinfection: two injections; for mean day of tumor initiation: two injections within two days
[9] = test system: thymidine kinase-positive (TK+) varicella-zoster virus (YS); experiment: Inhibition of TK+ VZV cytopathogenicity in Vero cell culture; type: cell-based
[10] = LD50 and toxicity in mice, intraperitoneal
[11] = test system: herpes simplex type 2 virus (HSV-2) (G); experiment: Inhibition of HSV-2 cytopathogenicity in Vero cell culture; type: cell-based; details: 50% inhibition of cytopathogenicity, for 1:1 mixtures IC50 refers to known antiviral drugs
HSV thymidine kinase = HSV thymidine kinase (Human herpesvirus 1, UniProt P0DTH5); experiment: Phosphorylation of nucleosides by HSV thymidine kinase; type: biochemical
[12] = test system: Vero cell thymidine kinase; experiment: Phosphorylation of nucleosides by Vero cell thymidine kinase; type: biochemical
[13] = 100 mg/kg/day i.p., read-out: percentage of HSV-1-infected mice alive at day 21 postinfection
[14] = 100 mg/kg/day i.p., read-out: percentage of HSV-1-infected mice without symptoms at day 21 postinfection
[15] = 150 mg/kg/day i.p., read-out: percentage of HSV-1-infected mice alive at day 21 postinfection
[16] = 150 mg/kg/day i.p., read-out: percentage of HSV-1-infected mice without symptoms at day 21 postinfection
[17] = 250 mg/kg/day i.p., read-out: percentage of HSV-1-infected mice alive at day 21 postinfection
[18] = 250 mg/kg/day i.p., read-out: percentage of HSV-1-infected mice without symptoms at day 21 postinfection
[19] = Vero cell culture, 50% inhibition of cytopathogenicity, for 1:1 mixtures IC50 refers to known antiviral drugs

HSV thymidine kinase, sequence (P0DTH5 whole entry, looked up): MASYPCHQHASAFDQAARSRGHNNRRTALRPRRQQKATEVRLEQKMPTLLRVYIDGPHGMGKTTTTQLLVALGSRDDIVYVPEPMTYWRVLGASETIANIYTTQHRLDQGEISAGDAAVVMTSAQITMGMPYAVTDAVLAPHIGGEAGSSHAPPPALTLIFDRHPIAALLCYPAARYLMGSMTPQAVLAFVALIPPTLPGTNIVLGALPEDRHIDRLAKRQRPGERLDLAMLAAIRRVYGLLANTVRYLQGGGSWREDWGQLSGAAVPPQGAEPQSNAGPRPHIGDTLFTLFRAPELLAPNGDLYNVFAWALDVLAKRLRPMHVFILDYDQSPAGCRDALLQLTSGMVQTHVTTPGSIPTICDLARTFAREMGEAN

Nc1ncnc2c1ncn2[C@@H]1O[C@H](COP(=O)(O)O)[C@@H](OP(=O)(O)COCCn2cnc3ncnc(N)c32)[C@H]1O [Compound 24, 9-[5′-O-(phosphono)-β-D-furanosyl]adenine-3′-[[1-(adenin-7-yl-ethoxy)methyl]phosphonate]]
IC50 [1]: 4.2 µg/mL (≈ 6.97 µM)
Vmax less than that of ara-A 3 ([2]; ADA substrate): about 95%
type of ADA inhibition in words ([2]; ara-A used as substrate): competitive inhibition
rel. Vmax [2]: 9.78 × 10^−2
Ki ([2]; inhibition of ADA with ara-A 3 as substrate): 99.7 µM
IC50 ([3]; Human betaherpesvirus 5, AD169, Vero): 11 µg/mL (≈ 18.3 µM)
mean day of animal death (HSV-1 (KOS); 100 mg/kg/day i.p.): 19.5 ± 1.2 days
mean day of symptom initiation (HSV-1 (KOS); 100 mg/kg/day i.p.): 16.0 ± 1.7 days
protection against HSV-induced mortality (HSV-1 (KOS); 150 mg/kg dose level i.p.): full protection
mean day of animal death (HSV-1 (KOS); 150 mg/kg/day i.p.): >21 days
mean day of symptom initiation (HSV-1 (KOS); 150 mg/kg/day i.p.): 19.3 ± 1.6 days
mean day of animal death (HSV-1 (KOS); 250 mg/kg/day i.p.): >21 days
mean day of symptom initiation (HSV-1 (KOS); 250 mg/kg/day i.p.): >21 days
responders at 100 mg/kg (HSV-1 (KOS); [13]): 90%
responders at 100 mg/kg (HSV-1 (KOS); [14]): 70%
responders at 150 mg/kg (HSV-1 (KOS); [15]): 100%
responders at 150 mg/kg (HSV-1 (KOS); [16]): 85%
responders at 250 mg/kg (HSV-1 (KOS); [17]): 100%
responders at 250 mg/kg (HSV-1 (KOS); [18]): 100%
IC50 (HIV-1 (IIIB); MT4, read-out: IC50 HIV-1 (IIIB)): 5.9 µg/mL (≈ 9.79 µM)
yield of 5′-dephosphorylated product with snake venom phosphodiesterase [4]: about 80%
solubility at 20 h ([5]; 0.10 m phosphate buffer): 3080 µg/mL (≈ 5110 µM)
IC50 [6]: 17 µg/mL (≈ 28.2 µM)
logP at […] ([7]; 1-octanol/phosphate buffer): 0.12
IC50 (HIV-2 (LAV-2); Human immunodeficiency virus 2, MT4, read-out: IC50 HIV-2 (LAV-2)): 6.4 µg/mL (≈ 10.6 µM)
IC50 [8]: 7 µg/mL (≈ 11.6 µM)

COC1=C(OC)/C(=C/COP(=O)(O)COCCn2cnc3c(N)ncnc32)OC1=O [Compound 28, [1-(Adenin-9-yl-ethoxy)methyl]phosphono-6-yl-(Z)-4-(ethylidene)-2,3-dimethoxy-Δ^a,b-butenolide]
MT4 cell, concentration reducing the number of viable uninfected cells by 50% (MT4 cells): 265 µg/mL
CEM cell, concentration reducing the number of viable uninfected cells by 50% (CEM cells): 280 µg/mL
HeLa cell, concentration causing microscopically visible change or disruption in about 50% of the cell sheet (HeLa cells; human): 139 µg/mL
IC50 [1]: 2.4 µg/mL (≈ 5.44 µM)
mean day of animal death (MSV; 10 mg/kg/day i.p.): 18.9 ± 1.8 days
percentage of MSV-infected mice alive at day 21 postinfection (MSV; 10 mg/kg/day i.p.): (97%)
mean day of tumor initiation (MSV; 10 mg/kg/day i.p.): 14.0 ± 2.1 days
mean day of animal death (MSV; 20 mg/kg/day i.p.): >21 days
percentage of MSV-infected mice alive at day 21 postinfection (MSV; 20 mg/kg/day i.p.): (100%)
percentage of MSV-infected mice without tumors at day 21 postinfection (MSV; 20 mg/kg/day i.p.): (80%)
mean day of tumor initiation (MSV; 20 mg/kg/day i.p.): 17.9 ± 1.7 days
mean day of animal death (MSV; 50 mg/kg/day i.p.): >21 days
percentage of MSV-infected mice alive at day 21 postinfection (MSV; 50 mg/kg/day i.p.): (100%)
percentage of MSV-infected mice without tumors at day 21 postinfection (MSV; 50 mg/kg/day i.p.): (95%)
mean day of tumor initiation (MSV; 50 mg/kg/day i.p.): 18.4 ± 1.4 days
weight loss in surviving animals (MSV; MSV-infected NMRI mice, i.p.): about 2 g
ADA substrate / inhibitor property in words [2]: neither a good substrate nor an inhibitor
IC50 ([3]; Human betaherpesvirus 5, AD169, Vero cell culture, 50% inhibition of cytopathogenicity, for 1:1 mixtures IC50 refers to known antiviral drugs): 5.4 µg/mL (≈ 12.2 µM)
protection against HSV-induced mortality (HSV-1 (KOS); 100 mg/kg i.p.): same level of protection
mean day of animal death (HSV-1 (KOS); 100 mg/kg/day i.p.): >21 days
mean day of symptom initiation (HSV-1 (KOS); 100 mg/kg/day i.p.): >21 days
mean day of animal death (HSV-1 (KOS); 150 mg/kg/day i.p.): >21 days
mean day of symptom initiation (HSV-1 (KOS); 150 mg/kg/day i.p.): >21 days
mean day of animal death (HSV-1 (KOS); 250 mg/kg/day i.p.): >21 days
mean day of symptom initiation (HSV-1 (KOS); 250 mg/kg/day i.p.): >21 days
responders at 100 mg/kg (HSV-1 (KOS); [13]): 100%
responders at 100 mg/kg (HSV-1 (KOS); [14]): 100%
responders at 150 mg/kg (HSV-1 (KOS); [15]): 100%
responders at 150 mg/kg (HSV-1 (KOS); [16]): 100%
responders at 250 mg/kg (HSV-1 (KOS); [17]): 100%
responders at 250 mg/kg (HSV-1 (KOS); [18]): 100%
IC50 TK+VZV (YS) [9]: 2.0 µg/mL (≈ 4.53 µM)
IC50 (HIV-1 (IIIB); MT4 cells, average of duplicates, read-out: IC50 HIV-1 (IIIB)): 1.4 µg/mL (≈ 3.17 µM)
Vero cell, concentration causing microscopically visible change or disruption in about 50% of the cell sheet (Vero cells; African green monkey): 170 µg/mL
solubility at 20 h ([5]; phosphate buffer): 7420 µg/mL (≈ 16800 µM)
IC50 ([6]; CEM cells, average of duplicates): 0.93 µg/mL (≈ 2.11 µM)
LD50 ([10]; NMRI, mouse, in vivo, ip): 710 mg/kg
level up to which no toxicity was shown ([10]; mice, intraperitoneal): 400 mg/kg
logP at […] ([7]; 1-octanol/water (0.10 M phosphate buffer)): 2.09
IC50 (HIV-2 (LAV-2); Human immunodeficiency virus 2, MT4 cells, average of duplicates, read-out: IC50 HIV-2 (LAV-2)): 1 µg/mL (≈ 2.27 µM)
IC50 [8]: 3.7 µg/mL (≈ 8.38 µM)

Nc1ncnc2c1ncn2[C@@H]1O[C@H](CO)[C@@H](O)[C@@H]1O [ara A 3, 9-(β-D-arabinofaranosyl)adenine, reference compound]
IC50 HSV-2 (G) [11]: >128 µg/mL
HeLa cell, concentration causing microscopically visible change or disruption in about 50% of the cell sheet (HeLa cells): 73 µg/mL
IC50 TK−VZV (YS/R) [1, 19]: >128 µg/mL
rel. Vmax, HSV thymidine kinase (HSV thymidine kinase): <3.0
effect on the rate of phosphorylation of acyclovir 2 in words (HSV thymidine kinase; mixture with acyclovir 2 (w/w=1:1)): did not induce any increase
rel. Vmax [2]: 1.0
IC50 HCMV (AD-169) [3, 19]: 27 µg/mL (≈ 101 µM)
IC50 TK+VZV (YS) [9, 19]: >128 µg/mL
Vero cell, concentration causing microscopically visible change or disruption in about 50% of the cell sheet (Vero cells): 89 µg/mL
solubility in water ([5]; phosphate buffer 0.10 M, pH 6.8, agitated 20 h): 480 µg/mL (≈ 1800 µM)
log P (1-octanol/water) ([7]; P = [substrate]1-octanol/[substrate]H2O, phosphate buffer 0.10 M): −0.50
IC50 HSV-1 (KOS) ([8]; Vero cell culture, 50% inhibition of virus-induced cytopathogenicity, mean of duplicates, for 1:1 (W/W) mixtures IC50 refers to known antiviral drugs): 8.8 µg/mL (≈ 32.9 µM)
Km ([12]; apparent Km, 37° C., pH 7.5): 13 mM
rel. Vmax, Vero cell thymidine kinase ([12]; relative to thymidine = 1.0 × 10^2): <3.0

Source: US6825348B2, “Antiviral compounds” (Academia Sinica, priority 2002, dated 2004)
